In patent US12312308B2, “Salts and esters of APX3330 and therapeutic uses thereof” (Opus Genetics, Inc., priority 2022, dated 2025):
Structures can show the parent of a compound that is named as a salt.

Test: Dynamic vapor sorption (DVS) analysis
Format: physicochemical

maximum water adsorption (DVS, at 82% RH): about 1.52%
water retained at the end of the desorption branch (DVS, end of desorption branch): 0.19%
crystalline form after DVS (subsequent XRPD analysis) (post-DVS sample vs pre-DVS sample, XRPD): maintained the same crystalline form
SMILES: CCCCCCCCC/C(=C\C1=C(C)C(=O)C(OC)=C(OC)C1=O)C(=O)O [Compound 1 calcium salt]
